How the values were obtained:
ASIC1a [1] = molecular target: T1, ASIC1a (Homo sapiens, UniProt P78348); assay: Calcium imaging of MES-induced calcium response (FLIPR); type: cell-based; design: host or cells: HEK293
T1 sequence (P78348 1-528): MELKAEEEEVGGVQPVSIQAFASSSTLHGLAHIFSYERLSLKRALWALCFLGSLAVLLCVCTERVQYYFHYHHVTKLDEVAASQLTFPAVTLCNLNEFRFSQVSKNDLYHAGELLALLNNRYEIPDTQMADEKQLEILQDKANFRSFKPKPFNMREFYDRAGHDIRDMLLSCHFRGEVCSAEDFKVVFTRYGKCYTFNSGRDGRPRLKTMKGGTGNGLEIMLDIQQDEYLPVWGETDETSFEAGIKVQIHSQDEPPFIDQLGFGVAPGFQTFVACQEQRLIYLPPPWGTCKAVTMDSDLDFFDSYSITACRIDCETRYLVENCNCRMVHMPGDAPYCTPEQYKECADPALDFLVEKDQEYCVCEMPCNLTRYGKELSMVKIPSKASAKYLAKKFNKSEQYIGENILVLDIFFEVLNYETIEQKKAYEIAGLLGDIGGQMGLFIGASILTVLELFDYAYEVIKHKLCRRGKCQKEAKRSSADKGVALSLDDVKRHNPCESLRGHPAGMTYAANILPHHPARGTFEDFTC

ASIC1a [2] = molecular target: T1, ASIC1a; assay: Whole cell patch clamp in HEK293 cells transfected with hASIC1a; type: cell-based; design: expressed in transfected cells; host or cells: Xenopus laevis oocytes (nuclear microinjection of expression vector such as pcDNA3)
Protocol: Another example of an in vitro assessment method consists of using mammalian heterologous expression systems, which are known to the skilled in the art, and include a variety of mammalian cell lines such as COS, HEK, e.g., HEK293 and/or CHO, cells. Cell lines are transfected with gated ion channel(s) and used to perform electrophysiology as follows:
All experiments are performed at room temperature (20-25° C.) in voltage clamp using conventional whole cell patch clamp methods (Neher, E., et al. (1978) Pfluegers Arch 375:219-228).
The amplifier used is the EPC-9 (HEKA-electronics, Lambrect, Germany) run by a Macintosh G3 computer via an ITC-16 interface. Experimental conditions are set with the Pulse-software accompanying the amplifier. […]
Coverslips with the cells are transferred to a 15 μl experimental chamber mounted on the stage of an inverted microscope (IMT-2, Olympus) supplied with Nomarski optics. […] The cells are held at a holding voltage of −60 mV and at the start of each experiment the current is continuously measured for 45 s to ensure a stable baseline. […] Current amplitudes are measured at the peak of the responses, and effect of the compounds is calculated as the amplitude at compound equilibrium divided by the amplitude of the current evoked by the pulse just before the compound is included. […]

Structure (SMILES) | IC50 (ASIC1a [1]; ASIC1a expressing HEK293 cells, MES-induced calcium response, read-out: IC50 (FLIPR)) [µM] | IC50 (ASIC1a [2]; HEK293 cells, whole cell patch clamp, six point dose-response, read-out: IC50, inhibition of acid-induced hASIC1a activity) [µM] | IC50 (ASIC1a [1]) [µM] | IC50 (ASIC1a [2]) [µM]
COc1ccc(F)cc1-c1cc(C#N)c(N)c2c1CCN(C)C2 [Compound 206, 8-Amino-5-(5-fluoro-2-methoxy-phenyl)-2-methyl-1,2,3,4-tetrahydro-isoquinoline-7-carbonitrile] | 20 to 40 | 28 | – | –
CN1CCc2c(-c3ccccc3)cc(C#N)c(N)c2C1 [Compound 203, 8-Amino-2-methyl-5-phenyl-1,2,3,4-tetrahydro-isoquinoline-7-carbonitrile] | – | – | < 10 | 7.5
